# According to US4460576A, “Peptide and hormone agent containing the same as effective ingredient” (Kaken Pharmaceutical Co., Ltd., priority 1982, dated 1984):
# “And” between values parts separate entries of the source, which are not always exact repeats. Equal values may be shown once. Positions of bridges follow the written chain, without caps; N, C: chain ends. Residues, ends and D or L forms follow the SMILES beside them. No end group written: not given here.
# Experiments:
# Male Wistar rats = assay: GH-releasing activity of [Gln^16 ]--GH--RH in vivo, plasma GH by RIA (Pharmacological Test Example 3); design: species or system rat; conditions: for GH Concentration, individual rats / GH Concentration Mean ± S.E.: plasma; for GH Concentration, individual rats: rats G, H, I, J, K, L in order; for GH Concentration Mean ± S.E.: procedure of Test Example 2, six rats G to L
# Experimental: Male Wistar rats of 10 weeks old were used. The rats were anesthetized with pentobarbital administered intraperitoneally (i.p.) in a dosage of 50 mg./kg. and fixed. Silastic tube (Dow Corning 0.020 in I.D., by 0.037 in O.D.) cannula of 3.5 cm was inserted to the heart side of right jugular vein in the rat. In the rat with chronic vein-cannula in plant, the other side of the cannula was taken out by 3 cm. from backside of neck and fixed on outer layer of skin.
# From the cannula was injected 0.5 ml. of 20 units/ml. heparin, and then the cannula was pluged with a stainless-steel wire stopper. The rats were subjected to injecting of GH--RH and blood-gathering under non-anesthetic condition on the next day. Chlorpromazine hydrochloride was administered i.p. before 4 hrs. of injection in a dosage of 2 mg./kg. Four rats (D to G) received injection from the cannula of 440 μg./kg. of GH--RH obtained from salmon in Example 1. Three rats (A to C) received physiological saline as a control.
# From each rat, 0.5 ml. of blood was gathered before 15 minutes of injection and after 15, 30, 60, 120 and 180 minutes of injection.
# The gathered blood was centrifuged at 2,000×g for 10 minutes. For measuring GH-releasing activity, the supernatant (plasma) was assayed by means of a radio immuno assay (hereinafter referred to as "RIA") according to a double antibody method (see C. A. Birge et al Endocrinology 81, p.195 (1967)). The RIA of rat GH was carried out by employing NIH kit. The results are shown in Table 4 and FIG. 8 in which symbols A to G described in Table 4 correspond to those described in FIG. 8.
# The procedure of Pharmacological Test Example 2 was repeated except that six rats were used, respectively, as to the group receiving [Gln^16 ]--GH--RH and as to the group receiving physiological saline and the blood-gathering was carried out before 15 minutes of injection and after 15, 30, 60, 120, 180, 240 and 300 minutes, respectively, of injection.
# [1] = R. Guillemin et al, Science, 218, p.585 (1982); cited from earlier work
# [2] = system: anterior pituitaries obtained from male Wistar Rats; assay: GH release from pieces of rat anterior pituitaries on a column, radioimmunoassay (Pharmacological Test Example 1); assay type: cell-based
# Experimental: Small pieces of anterior pituitaries obtained from male Wistar Rats were placed on top of a column being an injection cylinder having one […] diameter packed with 0.3 to 0.5 ml. of Sephadex G 25 equilibrated with a Krebs-Ringer buffer solution containing 0.1% calf serum at a flow rate of 0.5 ml./min. On the column were chromatographed 1 ml. of a control solution (a Klebs-Ringer buffer solution), 1 ml. of 2 μg./ml. solution of TRH and 1 ml. of 2 μg./ml. solution of the GH--RH obtained in Example 1 in that order. The column effluent was collected in 1 ml.-fractions and each fraction was analyzed by means of a radioimmunoassay with an anti-rat GH antibody (NIH standard) to determine an amount of the released rat GH in the assay.
compound,measurement,setting,value
CSCC[C@@H]1NC(=O)[C@@H](NC(=O)[C@H](CCCNC(=N)N)NC(=O)[C@H](CCSC)NC(=O)[C@@H](NC(=O)[C@@H](N)CC(=O)O)[C@@H](C)O)CSSC[C@@H](C(=O)N[C@@H](Cc2c[nH]c3ccccc23)C(=O)N[C@@H](CCC(N)=O)C(=O)N[C@H](C(=O)O)C(C)C)NC(=O)[C@@H]2CCCN2C(=O)[C@H](CCCNC(=N)N)NC(=O)[C@H](Cc2ccc(O)cc2)NC(=O)[C@H](C(C)C)NC(=O)[C@H](CCCNC(=N)N)NC(=O)CNC(=O)[C@H](C(C)C)NC1=O [[Gln^16]--GH--RH] (H-DTMRCMVGRVYRPCWQV-OH; disulfide 5-14),increase of GH concentration in plasma compared with the control group,Male Wistar rats; FIG. 9,evident increase of GH concentration in plasma was observed from 30 to 60 minutes after injection
same,"GH Concentration, individual rats",Male Wistar rats; 15 min after injection,10.04 μIU/ml. and 9.76 μIU/ml. and 7.20 μIU/ml. and 11.52 μIU/ml. and 7.64 μIU/ml. and 8.08 μIU/ml.
same,"GH Concentration, individual rats",Male Wistar rats; 30 min after injection,9.80 μIU/ml. and 7.72 μIU/ml. and 34.84 μIU/ml. and 8.36 μIU/ml. and 30.68 μIU/ml. and 57.80 μIU/ml.
same,"GH Concentration, individual rats",Male Wistar rats; 60 min after injection,56.52 μIU/ml. and 47.00 μIU/ml. and 63.40 μIU/ml. and 115.36 μIU/ml. and 21.48 μIU/ml. and 44.88 μIU/ml.
same,"GH Concentration, individual rats",Male Wistar rats; 120 min after injection,22.48 μIU/ml. and 29.32 μIU/ml. and 23.56 μIU/ml. and 18.08 μIU/ml. and 13.24 μIU/ml. and 11.52 μIU/ml.
same,"GH Concentration, individual rats",Male Wistar rats; 180 min after injection,10.08 μIU/ml. and 9.72 μIU/ml. and 10.56 μIU/ml. and 10.24 μIU/ml. and 9.48 μIU/ml. and 8.20 μIU/ml.
same,"GH Concentration, individual rats",Male Wistar rats; 240 min after injection,25.84 μIU/ml. and 8.36 μIU/ml. and 30.00 μIU/ml. and 36.48 μIU/ml. and 7.80 μIU/ml. and 11.52 μIU/ml.
same,"GH Concentration, individual rats",Male Wistar rats; 300 min after injection,12.36 μIU/ml. and 12.08 μIU/ml. and 10.32 μIU/ml. and 16.64 μIU/ml. and 12.96 μIU/ml. and 10.76 μIU/ml.
same,"GH Concentration, individual rats",Male Wistar rats; -15 min (before injection),10.52 μIU/ml. and 9.36 μIU/ml. and 8.56 μIU/ml. and 6.32 μIU/ml. and 7.20 μIU/ml. and 8.96 μIU/ml.
same,GH Concentration Mean ± S.E.,Male Wistar rats; 15 min after injection,9.04 ± 0.68 μIU/ml.
same,GH Concentration Mean ± S.E.,Male Wistar rats; 30 min after injection,24.87 ± 8.19 μIU/ml.
same,GH Concentration Mean ± S.E.,Male Wistar rats; 60 min after injection,58.11 ± 12.84 μIU/ml.
same,GH Concentration Mean ± S.E.,Male Wistar rats; 120 min after injection,19.70 ± 2.75 μIU/ml.
same,GH Concentration Mean ± S.E.,Male Wistar rats; 180 min after injection,9.71 ± 0.34 μIU/ml.
same,GH Concentration Mean ± S.E.,Male Wistar rats; 240 min after injection,20.00 ± 5.04 μIU/ml.
same,GH Concentration Mean ± S.E.,Male Wistar rats; 300 min after injection,12.52 ± 0.92 μIU/ml.
same,GH Concentration Mean ± S.E.,Male Wistar rats; -15 min (before injection),8.49 ± 0.62 μIU/ml.
same,GH-releasing effect,Male Wistar rats; rats in vivo,has a GH-releasing effect
"hpGRF: GH-releasing factor isolated from human pancreatic cancer (YADAIFTNSYRKVLGQLSARKLLQDIMSRQQGESNQERGARARL; ends and bridges not checked; UniProt P01286 32-75, looked up)",time after injection at which increase of GH is shown,[1],5 min
thyrotropic releasing hormone [TRH],Amount of Released Rat GH,"[2]; 1 ml. of 2 μg./ml. solution on the column, RIA with anti-rat GH antibody",300 ng/mL
same,releasing manner of GH,[2]; elution profile of released GH,broad
